Assay results reported in US7709495B2, “Methods and reagents for the treatment of inflammatory disorders” (CombinatoRx, Incorporated, priority 2003, dated 2010).
Like-named read-outs stand apart in the source and are kept apart here.

What was measured:
Type in all cases: cell-based
[1] = system: white blood cells from human buffy coat; assay: alamarBlue assay (toxicity/cell viability), lipopolysaccharide stimulated; conditions: PBMC, read-out: % Inhibition of Proliferation of PBMC LPS
Description: (§1) A stock solution containing prednisolone (0.36 mg/ml) was prepared in DMSO. A stock solution containing ibudilast (1.84 mg/ml) was prepared in DMSO. Master plates were prepared for dilutions of the stock solutions above.
(§2) The final single agent plates were generated by transferring 1 μL of stock solution from the specific master plate to separate dilution plates containing 99 μL of media (RPMI; Gibco BRL, #11875-085), 10% fetal bovine serum (Gibco BRL, #25140-097), 2% penicillin/streptomycin (Gibco BRL, #15140-122)) using the Packard Mini-Trak liquid handler. The dilution plates were then mixed and a 10 μL aliquot transferred from each dilution plate to the final assay plate (polystyrene 384-well plate (NalgeNunc)), which had been pre-filled with 30 μL/well RPMI media containing 33 ng/mL phorbol 12-myristate 13-acetate (Sigma, P-1585) and 2.475 ng/mL ionomycin (Sigma, I-0634) or alternatively for the LPS stimulated assay RPMI media containing 2 μg/ml lipopolysaccharide (Sigma, L-4130).
(§3) The percent inhibition (% I) for each well was calculated using the following formula: % I=[(avg. untreated wells−treated well)/(avg. untreated wells)]×100
(§4) The average untreated well value (avg. untreated wells) is the arithmetic mean of 30 wells from the same assay plate treated with vehicle alone.
(§5) The toxicity of the test combination were assessed using alamarBlue® assayed in white blood cells from human buffy coat stimulated with LPS or phorbol 12-myistate 13-acetate and Ionomycin, as follows. Human white blood cells from buffy coat were diluted 1:50 in media (RPMI; Gibco BRL, #11875-085), 10% fetal bovine serum (Gibco BRL, #25140-097), 2% penicillin/streptomycin (Gibco BRL, #15140-122)) and 50 μL of the diluted white blood cells was placed in each well of the final assay plate created in the above section. After 16-18 hours of incubation at 37° C. with 5% CO2 in a humidified incubator, 5 μl of alamarBlue® (BioSource Intl. Inc., DAL 1100) was added to all of the wells. After 20-24 hours of incubation in 37° C. in a humidified incubator, fluorescence was then measured using a plate fluorometer.
Cell viability was measured the alamarBlue® asay described above after stimulation with lipopolysaccharide. The effects of varying concentrations of ibudilast, prednisolone and a combination of ibudilast and prednisolone were compared to control wells. These wells were stimulated with lipopolysaccharide, but not receive ibudilast or prednisolone.

IL-1 secretion = IL-1 secretion assay (ELISA), LPS stimulated white blood cells; conditions: Homo sapiens, PBMC
Description: (§6) The compound dilution matrix was assayed for the suppression of phorbol 12-myristate 13 acetate/ionomycin stimulated IL-1 and TNFα secretion as well as the suppression of lipopolysaccharide-stimulated TNFα secretion from human white blood cells using the ELISA method, as described below.
as §1, §2
The effects of test compound combinations on IL-1 secretion were assayed in white blood cells from human buffy coat stimulated with LPS, as follows. Human white blood cells from buffy coat were diluted 1:50 in media (RPMI; Gibco BRL, #11875-085), 10% fetal bovine serum (Gibco BRL, #25140-097), 2% penicillin/streptomycin (Gibco BRL, #15140-122)) and 50 μL of the diluted white blood cells was placed in each well of the final assay plate created in the above section. After 16-18 hours of incubation at 37° C. in a humidified incubator, the plate was centrifuged and the supernatant was transferred to a white opaque 384-well plate (NalgeNunc, MAXISORB) coated with an anti-IL-1 antibody (R&D Systems, MAB601). After a two-hour incubation, the plate was washed (Tecan Powerwasher 384) with PBS containing 0.1% Tween 20 and incubated for an additional one hour with a biotin labeled anti-IL-1 antibody (R&D Systems, BAF201) and horse radish peroxidase coupled to streptavidin (PharMingen, #554066). The plate was then washed again with 0.1% Tween 20/PBS, and an HRP-luminescent substrate was added to each well. Light intensity was then measured using a plate luminometer.
as §3, §4
IL-1 secretion was measured by ELISA as described above after stimulation with lipopolysaccharide. The effects of varying concentrations of ibudilast, prednisolone and a combination of ibudilast and prednisolone were compared to control wells.

[2] = system: white blood cells from human buffy coat; assay: alamarBlue assay (toxicity/cell viability), PMA/ionomycin stimulated; conditions: PBMC, read-out: % Inhibition of Proliferation of PBMC PI
Description: as §1, §2, §3, §4, §5
Cell viability was measured using the alamarBlue® assay described above after stimulation with phorbol 12-myristate 13-acetate and ionomycin. The effects of varying concentrations of ibudilast, prednisolone and a combination of ibudilast and prednisolone were compared to control wells.

TNFα secretion = TNFα secretion assay (ELISA), lipopolysaccharide stimulated white blood cells; conditions: Homo sapiens, PBMC, read-out: % Inhibition TNFα PBMC LPS
Description: as §6, §1, §2
The effects of test compound combinations on TNFα secretion were assayed in white blood cells from human buffy coat stimulated with phorbol 12-myistate 13-acetate, or lipopolysaccharide as follows. Human white blood cells from buffy coat were diluted 1:50 in media (RPMI; Gibco BRL, #11875-085), 10% fetal bovine serum (Gibco BRL, #25140-097), 2% penicillin/streptomycin (Gibco BRL, #15140-122)) and 50 μL of the diluted white blood cells were placed in each well of the final assay plate created in the above section. After 16-18 hours of incubation at 37° C. with 5% CO2 in a humidified incubator, the plate was centrifuged and the supernatant transferred to a white opaque polystyrene 384 well plate (NalgeNunc, Maxisorb) coated with an anti-TNFα antibody (PharMingen, #551220). After a two-hour incubation, the plate was washed (Tecan Powerwasher 384) with PBS containing 0.1% Tween 20 and incubated for one additional hour with biotin labeled anti-TNFα antibody (PharMingen, #554511) and HRP coupled to streptavidin (PharMingen, #13047E). The plate was then washed again with 0.1% Tween 20/PBS. An HRP-luminescent substrate was added to each well, and the light intensity of each well was measured using a plate luminometer.
as §3, §4
TNFα secretion was measured by ELISA as described above after stimulation with lipopolysaccharide. The effects of varying concentrations of ibudilast, prednisolone and a combination of ibudilast and prednisolone were compared to control wells.

CC(C)C(=O)c1c(C(C)C)nn2ccccc12 [Ibudilast, ibudilast]
inhibition at 0.062 µM ([1]; ibudilast 0.062 μM alone): -4.6%
inhibition at 0.12 µM ([1]; ibudilast 0.12 μM alone): -1.5%
inhibition at 0.25 µM ([1]; ibudilast 0.25 μM alone): -1.8%
inhibition at 0.5 µM ([1]; ibudilast 0.5 μM alone): -3.8%
inhibition at 1 µM ([1]; ibudilast 1 μM alone): -2.9%
inhibition at 2 µM ([1]; ibudilast 2 μM alone): 2.6%
inhibition at 4 µM ([1]; ibudilast 4 μM alone): -2.4%
inhibition at 8 µM ([1]; ibudilast 8 μM alone): 0.069%
inhibition at 0.062 µM (IL-1 secretion; ibudilast 0.062 μM alone): 19%
inhibition at 0.12 µM (IL-1 secretion; ibudilast 0.12 μM alone): -1.6%
inhibition at 0.25 µM (IL-1 secretion; ibudilast 0.25 μM alone): 20%
inhibition at 0.5 µM (IL-1 secretion; ibudilast 0.5 μM alone): 18%
inhibition at 1 µM (IL-1 secretion; ibudilast 1 μM alone): 41%
inhibition at 2 µM (IL-1 secretion; ibudilast 2 μM alone): 42%
inhibition at 4 µM (IL-1 secretion; ibudilast 4 μM alone): 50%
inhibition at 8 µM (IL-1 secretion; ibudilast 8 μM alone): 61%
inhibition at 0.062 µM ([2]; ibudilast 0.062 μM alone): -1.5%
inhibition at 0.12 µM ([2]; ibudilast 0.12 μM alone): -5.1%
inhibition at 0.25 µM ([2]; ibudilast 0.25 μM alone): 0.84%
inhibition at 0.5 µM ([2]; ibudilast 0.5 μM alone): -4%
inhibition at 1 µM ([2]; ibudilast 1 μM alone): -1.9%
inhibition at 2 µM ([2]; ibudilast 2 μM alone): 2.7%
inhibition at 4 µM ([2]; ibudilast 4 μM alone): 3.3%
inhibition at 8 µM ([2]; ibudilast 8 μM alone): 6.9%
inhibition at 0.062 µM (TNFα secretion; ibudilast 0.062 μM alone): 17%
inhibition at 0.12 µM (TNFα secretion; ibudilast 0.12 μM alone): 24%
inhibition at 0.25 µM (TNFα secretion; ibudilast 0.25 μM alone): 41%
inhibition at 0.5 µM (TNFα secretion; ibudilast 0.5 μM alone): 46%
inhibition at 1 µM (TNFα secretion; ibudilast 1 μM alone): 58%
inhibition at 2 µM (TNFα secretion; ibudilast 2 μM alone): 66%
inhibition at 4 µM (TNFα secretion; ibudilast 4 μM alone): 70%
inhibition at 8 µM (TNFα secretion; ibudilast 8 μM alone): 79%

C[C@]12C=CC(=O)C=C1CC[C@@H]1[C@@H]2[C@@H](O)C[C@@]2(C)[C@H]1CC[C@]2(O)C(=O)CO [Prednisolone, prednisolone]
inhibition at 0.0078 µM ([1]; prednisolone 0.0078 μM alone): -1.7%
inhibition at 0.016 µM ([1]; prednisolone 0.016 μM alone): -1.5%
inhibition at 0.031 µM ([1]; prednisolone 0.031 μM alone): 0.64%
inhibition at 0.062 µM ([1]; prednisolone 0.062 μM alone): -1.2%
inhibition at 0.12 µM ([1]; prednisolone 0.12 μM alone): -1.8%
inhibition at 0.25 µM ([1]; prednisolone 0.25 μM alone): -1.3%
inhibition at 0.5 µM ([1]; prednisolone 0.5 μM alone): -3.3%
inhibition at 1 µM ([1]; prednisolone 1 μM alone): -3.8%
inhibition at 0.0078 µM (IL-1 secretion; prednisolone 0.0078 μM alone): 18%
inhibition at 0.016 µM (IL-1 secretion; prednisolone 0.016 μM alone): 25%
inhibition at 0.031 µM (IL-1 secretion; prednisolone 0.031 μM alone): 50%
inhibition at 0.062 µM (IL-1 secretion; prednisolone 0.062 μM alone): 69%
inhibition at 0.12 µM (IL-1 secretion; prednisolone 0.12 μM alone): 70%
inhibition at 0.25 µM (IL-1 secretion; prednisolone 0.25 μM alone): 74%
inhibition at 0.5 µM (IL-1 secretion; prednisolone 0.5 μM alone): 77%
inhibition at 1 µM (IL-1 secretion; prednisolone 1 μM alone): 84%
inhibition at 0.0078 µM ([2]; prednisolone 0.0078 μM alone): 4%
inhibition at 0.016 µM ([2]; prednisolone 0.016 μM alone): 1%
inhibition at 0.031 µM ([2]; prednisolone 0.031 μM alone): 1.7%
inhibition at 0.062 µM ([2]; prednisolone 0.062 μM alone): -1.7%
inhibition at 0.12 µM ([2]; prednisolone 0.12 μM alone): 3.2%
inhibition at 0.25 µM ([2]; prednisolone 0.25 μM alone): 4.6%
inhibition at 0.5 µM ([2]; prednisolone 0.5 μM alone): 0.19%
inhibition at 1 µM ([2]; prednisolone 1 μM alone): 3.1%
inhibition at 0.0078 µM (TNFα secretion; prednisolone 0.0078 μM alone): 0.085%
inhibition at 0.016 µM (TNFα secretion; prednisolone 0.016 μM alone): 17%
inhibition at 0.031 µM (TNFα secretion; prednisolone 0.031 μM alone): 24%
inhibition at 0.062 µM (TNFα secretion; prednisolone 0.062 μM alone): 47%
inhibition at 0.12 µM (TNFα secretion; prednisolone 0.12 μM alone): 57%
inhibition at 0.25 µM (TNFα secretion; prednisolone 0.25 μM alone): 66%
inhibition at 0.5 µM (TNFα secretion; prednisolone 0.5 μM alone): 68%
inhibition at 1 µM (TNFα secretion; prednisolone 1 μM alone): 70%
